Experimental data as given in PMC5567249, “Reversible inactivation of a peptidoglycan transpeptidase by a β-lactam antibiotic mediated by β-lactam-ring recyclization in the enzyme active site” (Scientific Reports, 2017).

Assays:
Ldtfm [1] = molecular target: T1, Ldtfm (Enterococcus faecium, UniProt Q3Y185); test: stopped-flow competition with nitrocefin at […] nm; assay type: binding; settings: covalent; irreversible acylation; 22 µM enzyme, 50 µM nitrocefin, 64 µM imipenem; 100 mM sodium phosphate pH 6.0; 20 °C
T1 construct: gene HMPREF0351_12555; catalytic domain, residues 341 to 466

Ldtfm [2] = molecular target: T1, Ldtfm; test: stopped-flow spectrophotometry at […] nm, slope of kobs against nitrocefin concentration; assay type: biochemical; settings: covalent; reversible acylation of catalytic Cys; 11 µM enzyme; 100 mM sodium phosphate pH 6.0; 20 °C

T1 sequence (Q3Y185 entry or part of it): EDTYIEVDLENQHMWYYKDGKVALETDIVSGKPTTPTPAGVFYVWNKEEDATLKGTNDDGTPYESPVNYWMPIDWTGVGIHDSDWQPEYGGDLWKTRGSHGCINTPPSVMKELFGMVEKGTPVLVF

## C[C@@H](O)[C@H]1C(=O)N2C(C(=O)O)=C(SCCN=CN)C[C@H]12 [imipenem]
Ldtfm [1]
  stopped-flow competition with nitrocefin at 486 nm: imipenem gradually replaced nitrocefin in the enzyme active site

## O=C(Cc1cccs1)N[C@@H]1C(=O)N2C(C(=O)O)=C(/C=C/c3ccc([N+](=O)[O-])cc3[N+](=O)[O-])CS[C@H]12 [nitrocefin]
Ldtfm [2]
  efficacy of the acylation reaction: 24,000 ± 700 M^−1 s^−1
